Results as given in US5731293A, “Esculetin derivatives, method for manufacture thereof, and pharmaceutical composition” (Kureha Chemical Industry Co., Ltd., priority 1994, dated 1998).

What was measured:
[1] = tested on: Crj: CD-1 (ICR) male mice; assay: Acute toxicity, oral, male mice, 7-day observation; assay type: in vivo, mouse; conditions: 1000 and 2000 mg/kg, 7 days
Method: (§1) The toxicity of the esculetin derivatives of the present invention was examined. Typical examples of the present derivatives were administered orally at a dose of 2000 mg/kg (body weight) to male mice and male rats which were then observed for seven days. No deaths and no remarkable toxicity were observed. The esculetin derivatives of the present invention are extremely safe compounds (see Example 13).
(§2) The acute toxicity of the esculetin derivatives of the present invention was examined using Crj: CD-1 (ICR) male mice (6 weeks old) and Wistar male rats (6 weeks old). After 6-(β-2-acetamido-2-deoxy-D-glucopyranosyloxy)-7-(N,N-dimethylcarbamoyloxy)coumarin [Ib-2] […] In the experiments as above, two animals were used for each group.

Wistar male rats = assay: Acute toxicity, oral, male rats, 7-day observation; assay type: in vivo, rat; conditions: 1000 and 2000 mg/kg, 7 days
Method: as §1, §2

[2] = tested on: interstitial collagenase (MMP-1); assay: Inhibition of production of interstitial collagenase (MMP-1) in rabbit cartilage organ culture system, IL-1α stimulated; assay type: cell-based, rabbit (New Zealand White); conditions: IL-1α 100 units/ml, 48 hours; rabbit articular cartilage; values only in FIG. 1
Method: After the articular cartilages were collected from the shoulder and knee of rabbits (New Zealand White Rabbits, male, 6 weeks old) and divided into small pieces, cultivation experiment was started using Dulbecco's MEM medium containing 0.2% lactoalbumin. The compounds to be tested were dissolved in dimethylsulfoxide (DMSO) and then added to the medium. The concentration of DMSO was 0.25% by volume to the medium. After 2 hours from addition of the compounds to be tested, 100 units/ml of interleukin-1α (hereinafter referred to as the IL-1α) was added as a stimulant, and the cultivation was performed for 48 hours. Thereafter, the activity of MMP-1 in the supernatant of the culture was measured. Collageno kit (CLN-100) (Cosmo Bio Co., Ltd.) was used for the measurement of MMP-1.
The results are shown as the value of the mean value±standard error (n=4 per a group). As the esculetin derivative of the present invention, 6-(β-2-acetamido-2-deoxy-D-glucopyranosyloxy)-7-(N,N-dimethylcarbamoyloxy)coumarin [Ib-2] was used.
The abscissa is the percentage of the amounts of MMP-1 produced by adding both IL-1α and the compound to be tested as compared to the amounts of MMP-1 produced by the addition of IL-1α alone. When neither IL-1α nor the compound to be tested were added as a control test, MMP-1 was hardly produced.

[3] = Pharmacokinetic analysis in mouse femoral head cartilage (FHC) model; assay type: in vivo, BALB/C female mice implanted with FHC of S. D. male rats; conditions: oral, 534 mg/kg [Ib-2] vs esculetin 187 mg/kg; values only in FIG. 2
Method: The model mice were prepared in accordance with the method described in D. A. Willoughby et al., Agents Actions, vol. 38, pp. 126 to 134, 1993.
The left and right femoral head cartilages (FHC) were sterilely excised from S. D. male rats in a clean bench. The excised FHC's were washed with a Ham F-12 culture medium containing antibiotics and the wet weight was measured. Then, the FHC's were wrapped in two cotton sheets (about 1 cm×1 cm) and cooled with ice in the culture medium for storage until implantation. The FHC's were implanted sterilely under the dorsal skin of BALB/C female mice whose dorsal regions were shaved. The incisions were stitched, and then completely sealed with surgical adhesive (Toa Gosei, Japan).
The above mouse FHC model were used to pharmacokinetically compare esculetin and the esculetin derivative [Ib-2] of the present invention. Esculetin (187 mg/kg) and an equimolar amount, i.e., 534 mg/kg, of the esculetin derivative [Ib-2] of the present invention were administered orally three days after the implantation of the FHC. The FHC's were periodically removed and digested with papain. Then, an amount of the compounds taken up in the FHC was analyzed by high performance liquid chromatography. In the above experiments, three mice were used for each group.

Which deaths [1] does the source give for CC(=O)N[C@H]1[C@H](Oc2cc3ccc(=O)oc3cc2OC(=O)N(C)C)O[C@H](CO)[C@@H](O)[C@@H]1O [Ib-2, 6-(β-2-acetamido-2-deoxy-D-glucopyranosyloxy)-7-(N,N-dimethylcarbamoyloxy)coumarin] here?
Its deaths is “No deaths were observed”.

And the “general state and body weight in comparison with the control group” value [1]?
Its value is “no change was observed”.

And the deaths (Wistar male rats)?
The deaths was “No deaths were observed”.

And the “general state and body weight in comparison with the control group” value (Wistar male rats)?
The value was “no change was observed”.

And the “amounts of MMP-1 released under IL-1α stimulated condition” value [2]?
The value was “reduced the amounts of MMP-1 under IL-1α stimulated condition”.

And the “amount of compound taken up and retained in the FHC” value [3]?
The value was “taken up and retained in the FHC for a long time in a higher concentration as compared to esculetin”.
